# In patent US20230212222A1 (ANYGEN CO., LTD., priority 2020, published 2023):
# Square brackets hold non-standard residues; d marks the D form. Peptide text beside a SMILES is read from it. * marks the point of attachment. His(Trt) = N[C@@H](Cc1cn(C(c2ccccc2)(c2ccccc2)c2ccccc2)cn1)C(=O)O; dHis(Trt) = N[C@H](Cc1cn(C(c2ccccc2)(c2ccccc2)c2ccccc2)cn1)C(=O)O; His(τ-Bzl) = N[C@@H](Cc1cn(Cc2ccccc2)cn1)C(=O)O; dPhe(4-Br) = N[C@H](Cc1ccc(Br)cc1)C(=O)O; Palmitoyl = CCCCCCCCCCCCCCCC(=O)*; Lauroyl = CCCCCCCCCCCC(=O)*; Octanoyl = CCCCCCCC(=O)*
# Molecular target: T1, GPR39 (Homo sapiens, UniProt O43194)
# T1 sequence (O43194 1-453): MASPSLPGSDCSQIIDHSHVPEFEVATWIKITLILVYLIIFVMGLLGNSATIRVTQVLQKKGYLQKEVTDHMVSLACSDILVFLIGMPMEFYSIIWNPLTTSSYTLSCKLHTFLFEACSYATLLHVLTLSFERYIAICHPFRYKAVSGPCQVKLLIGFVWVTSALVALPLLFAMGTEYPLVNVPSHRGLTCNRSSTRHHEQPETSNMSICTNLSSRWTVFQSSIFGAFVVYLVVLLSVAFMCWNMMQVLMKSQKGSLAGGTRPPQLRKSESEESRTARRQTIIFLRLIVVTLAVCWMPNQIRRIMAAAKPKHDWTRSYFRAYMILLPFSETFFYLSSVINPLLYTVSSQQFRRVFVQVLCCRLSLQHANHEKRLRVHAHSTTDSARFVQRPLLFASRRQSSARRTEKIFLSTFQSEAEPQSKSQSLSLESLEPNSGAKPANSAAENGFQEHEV
# Procedure: Specifically, the fibroblast cell line CV-1 (1×10^5 cells/ml, Korea Cell Line Bank) was cultured in a 96 well cell culture plate for 24 hours, and then treated with GPR39 inserted into adenovirus and SRE (serum response element) luciferase at 50 MOI (multiplicity of infection) and 25 MOI virus for 3 hours, respectively, and then cultured for 24 hours.
row,SMILES,ECmax (-fold induction over basal)
1,"CCCCCCCC(=O)NCCCC[C@H](NC(=O)[C@H](N)Cc1cn(C(c2ccccc2)(c2ccccc2)c2ccccc2)cn1)C(=O)N[C@@H](Cc1ccccc1)C(=O)N[C@@H](Cc1ccc(O)cc1)C(=O)O [HKFY-4, N6-octanoyl-N2-(Nt-trityl-D-histidyl)-L-lysyl-L-phenylalanyl-L-tyrosine] (H-[dHis(Trt)]K(Octanoyl)FY-OH)",16.8 ± 1.87 -fold induction over basal
2,"CCCCCCCC(=O)NCCCC[C@H](NC(=O)[C@H](N)Cc1cn(C(c2ccccc2)c2ccccc2)cn1)C(=O)N[C@H](Cc1ccc(C)cc1)C(=O)N[C@@H](Cc1ccc(O)cc1)C(=O)O [HKFY-62, ((R)-2-((S)-2-((R)-2-amino-3-(1-benzhydryl-1H-imidazol-4-yl)propanamido)-6-octanamidohexanamido)-3-(p-tolyl)propanoyl)-L-tyrosine]",28.1 ± 2.1 -fold induction over basal
3,"CCCCCCCC(=O)NCCCC[C@H](NC(=O)[C@@H](N)Cc1cn(C23CC4CC(CC(C4)C2)C3)cn1)C(=O)N[C@@H](Cc1ccccc1)C(=O)N[C@@H](Cc1ccc(O)cc1)C(=O)O [HKFY-23, N2-(Nt-(adamantan-1-yl)-L-histidyl)-N6-octanoyl-L-lysyl-L-phenylalanyl-L-tyrosine]",15 ± 1.37 -fold induction over basal
4,"C[C@H](NC(=O)[C@H](CCC(N)=O)NC(=O)[C@H](CCC(N)=O)NC(=O)[C@H](CC(=O)O)NC(=O)[C@H](Cc1ccc(O)cc1)NC(=O)[C@H](Cc1ccccc1)NC(=O)[C@@H](N)Cc1cn(C(c2ccccc2)(c2ccccc2)c2ccccc2)cn1)C(=O)N[C@@H](CCCNC(=N)N)C(=O)N[C@@H](Cc1ccccc1)C(N)=O [HKFY-52, (6S,9S,12S,15S,18S)-1-amino-6-(((S)-1-amino-1-oxo-3-phenylpropan-2-yl)carbamoyl)-18-((S)-2-((S)-2-((S)-2-amino-3-(1-trityl-1H-imidazol-4-yl)propanamido)-3-phenylpropanamido)-3-(4-hydroxyphenyl)propanamido)-12,15-bis(3-amino-3-oxopropyl)-1-imino-9-methyl-8,11,14,17-tetraoxo-2,7,10,13,16-pentaazaicosan-20-oic acid] (H-[His(Trt)]FYDQQARF-NH2)",15.5 ± 2.2 -fold induction over basal
5,"CCCCCCCC(=O)NCCCC[C@H](NC(=O)[C@@H](N)Cc1cn(C(c2ccccc2)(c2ccccc2)c2ccccc2)cn1)C(=O)N[C@@H](Cc1ccccc1)C(=O)N[C@@H](Cc1ccc(O)cc1)C(=O)N[C@@H](Cc1c[nH]cn1)C(=O)N[C@@H](CCC(N)=O)C(=O)N[C@@H](CCC(N)=O)C(=O)N[C@@H](C)C(=O)N[C@@H](CCCNC(=N)N)C(=O)N[C@@H](Cc1ccccc1)C(N)=O [HKFY-42, (S)-2-((2S,5S,8S,11S)-2-((1H-imidazol-4-yl)methyl)-11-((S)-2-amino-3-(1-trityl-1H-imidazol-4-yl)propanamido)-8-benzyl-5-(4-hydroxybenzyl)-4,7,10,17-tetraoxo-3,6,9,16-tetraazatetracosanamido)-N1-((S)-5-amino-1-(((S)-1-(((S)-1-(((S)-1-amino-1-oxo-3-phenylpropan-2-yl)amino)-5-guanidino-1-oxopentan-2-yl)amino)-1-oxopropan-2-yl)amino)-1,5-dioxopentan-2-yl)pentanediamide] (H-[His(Trt)]K(Octanoyl)FYHQQARF-NH2)",11.8 ± 0.02 -fold induction over basal
6,"CCCCCCCC(=O)NCCCC[C@H](NC(=O)[C@@H](N)Cc1cn(CCC2CCCCC2)cn1)C(=O)N[C@@H](Cc1ccccc1)C(=O)N[C@@H](Cc1ccc(O)cc1)C(=O)O [HKFY-11, N2-(Nt-(2-cyclohexylethyl)-L-histidyl)-N6-octanoyl-L-lysyl-L-phenylalanyl-L-tyrosine]",22 ± 2.2 -fold induction over basal
7,"CCCCCCCC(=O)NCCCC[C@H](NC(=O)[C@@H](N)Cc1cn(C(c2ccccc2)c2ccccc2)cn1)C(=O)O [HKFY-79, N2-(Nt-benzhydryl-L-histidyl)-N6-octanoyl-L-lysine]",11.2 ± 1.4 -fold induction over basal
8,"CCCCCCCC(=O)NCCCC[C@H](NC(=O)[C@@H](N)Cc1cn(Cc2ccccc2)cn1)C(=O)N[C@@H](Cc1ccccc1)C(=O)N[C@@H](Cc1ccc(O)cc1)C(=O)O [HKFY-3, N2-(Nt-benzyl-L-histidyl)-N6-octanoyl-L-lysyl-L-phenylalanyl-L-tyrosine] (H-[His(τ-Bzl)]K(Octanoyl)FY-OH)",9.2 ± 2.58 -fold induction over basal
9,"CCCCCCCCCCCC(=O)NCCCC[C@H](NC(=O)[C@@H](N)Cc1cn(C(c2ccccc2)(c2ccccc2)c2ccccc2)cn1)C(=O)N[C@@H](Cc1ccccc1)C(=O)N[C@@H](Cc1ccc(O)cc1)C(=O)O [HKFY-25, N6-dodecanoyl-N2-(Nt-trityl-L-histidyl)-L-lysyl-L-phenylalanyl-L-tyrosine] (H-[His(Trt)]K(Lauroyl)FY-OH)",7.72 ± 0.57 -fold induction over basal
10,"CCCCCCCC(=O)NCCCC[C@H](NC(=O)[C@@H](N)Cc1cn(C(c2ccccc2)c2ccc(F)cc2F)cn1)C(=O)N[C@H](Cc1ccc(C)cc1)C(=O)N[C@@H](Cc1ccc(O)cc1)C(=O)O (stereo partly drawn) [HKFY-32, ((2R)-2-((2S)-2-((2S)-2-amino-3-(1-((2,4-difluorophenyl)(phenyl)methyl)-1H-imidazol-4-yl)propanamido)-6-octanamidohexanamido)-3-(p-tolyl)propanoyl)-L-tyrosine]",21.5 ± 2.7 -fold induction over basal
11,"CCCCCCCC(=O)NCCCC[C@H](N)C(=O)N[C@@H](Cc1ccccc1)C(=O)N[C@@H](Cc1ccc(O)cc1)C(=O)O [HKFY-54, N6-octanoyl-L-lysyl-L-phenylalanyl-L-tyrosine] (H-Lys(Octanoyl)-Phe-Tyr-OH)",7.8 ± 2.5 -fold induction over basal
12,"CCCCCCCC(=O)NCCCC[C@H](NC(=O)[C@@H](N)Cc1cn(C(c2ccccc2)(c2ccccc2)c2ccccc2)cn1)C(=O)N[C@H](Cc1ccc(Br)cc1)C(=O)N[C@@H](Cc1ccc(O)cc1)C(=O)O [HKFY-29, ((R)-2-((S)-2-((S)-2-amino-3-(1-trityl-1H-imidazol-4-yl)propanamido)-6-octanamidohexanamido)-3-(4-bromophenyl)propanoyl)-L-tyrosine] (H-[His(Trt)]K(Octanoyl)[dPhe(4-Br)]Y-OH)",26.8 ± 1.87 -fold induction over basal
13,"CCCCCCCC(=O)NCCCC[C@H](NC(=O)[C@@H](N)Cc1cn([C@H](c2ccccc2)c2ccc(C)cc2)cn1)C(=O)N[C@@H](Cc1ccccc1)C(=O)N[C@@H](Cc1ccc(O)cc1)C(=O)O [HKFY-22, N6-octanoyl-N2-(Nt-((R)-phenyl(p-tolyl)methyl)-L-histidyl)-L-lysyl-L-phenylalanyl-L-tyrosine]",21.3 ± 1.8 -fold induction over basal
14,"CCCCCCCCCCCCCCCC(=O)NCCCC[C@H](NC(=O)[C@@H](N)Cc1cn(C(c2ccccc2)(c2ccccc2)c2ccccc2)cn1)C(=O)N[C@@H](Cc1ccccc1)C(=O)N[C@@H](Cc1ccc(O)cc1)C(=O)O [HKFY-27, N6-palmitoyl-N2-(Nt-trityl-L-histidyl)-L-lysyl-L-phenylalanyl-L-tyrosine] (H-[His(Trt)]K(Palmitoyl)FY-OH)",20.4 ± 0.57 -fold induction over basal
